In PMC11083829, “Isolation, Characterization, Genome Annotation, and Evaluation of Hyaluronidase Inhibitory Activity in Secondary Metabolites of Brevibacillus sp. JNUCC 41: A Comprehensive Analysis through Molecular Docking and Molecular Dynamics Simulation” (International Journal of Molecular Sciences, 2024):

Target: T1, hyaluronidase (HAase) (Bos taurus, UniProt Q2YDK3)
T1 construct: Hyaluronidase was obtained from bovine testes (Sigma-Aldrich, St. Louis, MO, USA); purchased Sigma-Aldrich; host or cells: bovine testes (tissue-derived)
T1 sequence (Q2YDK3 36-553): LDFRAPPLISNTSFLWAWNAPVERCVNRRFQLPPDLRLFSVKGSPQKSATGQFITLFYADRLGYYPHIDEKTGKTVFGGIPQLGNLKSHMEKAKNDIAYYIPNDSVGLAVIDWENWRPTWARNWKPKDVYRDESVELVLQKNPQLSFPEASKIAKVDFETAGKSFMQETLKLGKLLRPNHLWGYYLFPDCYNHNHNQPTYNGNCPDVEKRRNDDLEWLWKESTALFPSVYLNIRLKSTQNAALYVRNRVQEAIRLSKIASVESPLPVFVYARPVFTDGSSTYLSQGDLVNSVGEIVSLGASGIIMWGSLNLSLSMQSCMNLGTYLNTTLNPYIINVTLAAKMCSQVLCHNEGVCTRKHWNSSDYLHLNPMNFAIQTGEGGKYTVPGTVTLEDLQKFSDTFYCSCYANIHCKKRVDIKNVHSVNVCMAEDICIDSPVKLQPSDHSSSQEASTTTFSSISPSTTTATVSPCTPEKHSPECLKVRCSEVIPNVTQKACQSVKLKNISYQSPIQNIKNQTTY
Assay: Hyaluronidase inhibitory activity enzymatic assay (HA substrate, DMAB, absorbance 540 nm)
Format: biochemical
Conditions: hyaluronidase from bovine testes; EGCG positive control
Description: Luria–Bertani Broth (LB) and Lactobacilli MRS Broth (Becton, Franklin Lakes, NJ, USA) were used for the bacterial culture. Silica gel (Merck, Darmstadt, Germany) and Sephadex LH-20 gel (Sigma-Aldrich, St. Louis, MO, USA) were used for chromatographic separations. Thin-layer chromatography (TLC) plates (Merck, Darmstadt, Germany) were used for analytical purposes. Hyaluronidase was obtained from bovine testes (Sigma-Aldrich, St. Louis, MO, USA). Nuclear magnetic resonance (NMR) spectrums were obtained using JNM-ECX 400 (FT-NMR system, 400 MHz, JEOL Co., Akishima, Japan).
In the enzymatic assay, 5 μL of hyaluronidase enzyme and 12.5 mM CaCl2 samples at varying concentrations were added to a 96-well plate. The samples were reacted for 20 min and incubated at 37 °C. After the initial incubation, 25 μL of the substrate solution (HA at a concentration of 2.4 mg/mL) was added. The reaction mixture was incubated again at 37 °C for 40 min. Then, 5 μL of 0.4 N NaOH and 5 μL of 0.4 M potassium tetraborate were added to the mixture, followed by incubation at 100 °C for 3 min. After cooling, 150 μL of DMAB solution (p-dimethylaminobenzaldehyde + acetic acid + 10 N HCL) was added to the reaction mixture. The absorbance of the reaction mixture was measured at 540 nm. Epigallocatechin gallate (EGCG) was used as a positive control in this assay.

| SMILES | IC50 |
| --- | --- |
| O=C(O[C@@H]1Cc2c(O)cc(O)cc2O[C@@H]1c1cc(O)c(O)c(O)c1)c1cc(O)c(O)c(O)c1 [EGCG, Epigallocatechin gallate] | 172 µM |
| COC(=O)Cc1c[nH]c2ccccc12 [Methyl indole-3-acetate, methyl indole-3-acetate] | 344 µM |
